# Results reported in ChEMBL document CHEMBL6127099, “Stimuli-responsive prodrugs with self-immolative linker for improved cancer therapy” (Eur J Med Chem, 2024).
# Target: NAD(P)H dehydrogenase [quinone] 1 (Homo sapiens, UniProt P15559)
# Test: Prodrug activation assessed as NQO1 (unknown origin)-mediated RSSH release by measuring rate constant
# Sequence of NAD(P)H dehydrogenase [quinone] 1 (P15559 whole entry): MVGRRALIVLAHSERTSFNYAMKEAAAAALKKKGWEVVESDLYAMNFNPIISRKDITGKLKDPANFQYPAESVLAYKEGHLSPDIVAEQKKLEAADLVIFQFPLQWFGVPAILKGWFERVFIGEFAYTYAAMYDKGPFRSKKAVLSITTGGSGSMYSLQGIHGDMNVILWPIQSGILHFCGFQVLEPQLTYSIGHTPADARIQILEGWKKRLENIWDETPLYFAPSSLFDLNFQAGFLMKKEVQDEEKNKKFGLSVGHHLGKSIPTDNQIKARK
row,SMILES,K
1,Cc1c(C)c2c(c(C)c1O)C(C)(C)CC(=O)O2,0.32 min⁻¹
2,COC(=O)[C@H](NC(C)=O)C(C)(C)SSCc1ccc(N(C)C(=O)CC(C)(C)C2=C(C)C(=O)C(C)=C(C)C2=O)cc1,0.162 min⁻¹
3,CN1CCN(C)C1=O,0.212 min⁻¹
4,COC(=O)[C@H](NC(C)=O)C(C)(C)SSC(=O)N(C)CCN(C)C(=O)CC(C)(C)C1=C(C)C(=O)C(C)=C(C)C1=O,0.17 min⁻¹
